Laboratory results as given in publication PMC7567334 (Environmental Health Perspectives, 2020).
Read-outs that look alike come from different tables or passages of the source.

Legend:
human (h)AR = target: T1, human (h)AR (Homo sapiens, UniProt P10275); assay: AR-EcoScreen hAR transcriptional activation assay, agonist setup; assay type: cell-based
T1 sequence (P10275 1-920): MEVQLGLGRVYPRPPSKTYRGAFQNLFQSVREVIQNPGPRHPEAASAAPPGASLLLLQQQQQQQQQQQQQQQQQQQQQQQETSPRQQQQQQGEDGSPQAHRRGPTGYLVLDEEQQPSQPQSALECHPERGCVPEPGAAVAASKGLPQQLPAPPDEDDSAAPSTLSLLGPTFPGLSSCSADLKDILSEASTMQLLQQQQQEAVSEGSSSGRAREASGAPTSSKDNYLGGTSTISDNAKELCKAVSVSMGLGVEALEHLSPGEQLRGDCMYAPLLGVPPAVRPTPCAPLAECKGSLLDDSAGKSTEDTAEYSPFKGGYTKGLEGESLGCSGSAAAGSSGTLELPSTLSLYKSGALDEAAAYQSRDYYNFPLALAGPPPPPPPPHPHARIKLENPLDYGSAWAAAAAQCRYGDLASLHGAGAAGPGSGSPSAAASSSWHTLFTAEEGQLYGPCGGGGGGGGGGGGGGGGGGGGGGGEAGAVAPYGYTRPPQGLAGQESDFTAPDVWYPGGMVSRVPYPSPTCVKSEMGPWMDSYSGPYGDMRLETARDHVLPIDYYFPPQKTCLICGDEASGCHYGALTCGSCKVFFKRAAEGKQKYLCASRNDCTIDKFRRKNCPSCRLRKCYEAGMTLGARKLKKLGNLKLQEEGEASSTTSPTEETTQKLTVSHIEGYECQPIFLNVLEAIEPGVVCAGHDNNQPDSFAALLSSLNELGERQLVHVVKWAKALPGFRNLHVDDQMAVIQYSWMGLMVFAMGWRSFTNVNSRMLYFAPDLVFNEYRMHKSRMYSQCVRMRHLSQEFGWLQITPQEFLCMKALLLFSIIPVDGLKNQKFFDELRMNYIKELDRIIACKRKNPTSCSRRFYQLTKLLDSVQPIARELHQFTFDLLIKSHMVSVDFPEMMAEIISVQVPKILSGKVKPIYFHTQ

Glucocorticoid receptor = conditions: ref Kolšek et al. 2014a, cited from earlier work
hERα-HeLa-9903 cells = assay: Cell viability (resazurin) in hERα-HeLa-9903 cells
GR [1] = target: T2, GR (Homo sapiens, UniProt P04150); assay: MDA-kb2 GR reporter assay, agonist setup (with FLU); assay type: cell-based; parameters: constitutively expressed high levels of functional GR and AR; host or cells: MDA-kb2; conditions: MDA-kb2
T2 sequence (P04150 1-777): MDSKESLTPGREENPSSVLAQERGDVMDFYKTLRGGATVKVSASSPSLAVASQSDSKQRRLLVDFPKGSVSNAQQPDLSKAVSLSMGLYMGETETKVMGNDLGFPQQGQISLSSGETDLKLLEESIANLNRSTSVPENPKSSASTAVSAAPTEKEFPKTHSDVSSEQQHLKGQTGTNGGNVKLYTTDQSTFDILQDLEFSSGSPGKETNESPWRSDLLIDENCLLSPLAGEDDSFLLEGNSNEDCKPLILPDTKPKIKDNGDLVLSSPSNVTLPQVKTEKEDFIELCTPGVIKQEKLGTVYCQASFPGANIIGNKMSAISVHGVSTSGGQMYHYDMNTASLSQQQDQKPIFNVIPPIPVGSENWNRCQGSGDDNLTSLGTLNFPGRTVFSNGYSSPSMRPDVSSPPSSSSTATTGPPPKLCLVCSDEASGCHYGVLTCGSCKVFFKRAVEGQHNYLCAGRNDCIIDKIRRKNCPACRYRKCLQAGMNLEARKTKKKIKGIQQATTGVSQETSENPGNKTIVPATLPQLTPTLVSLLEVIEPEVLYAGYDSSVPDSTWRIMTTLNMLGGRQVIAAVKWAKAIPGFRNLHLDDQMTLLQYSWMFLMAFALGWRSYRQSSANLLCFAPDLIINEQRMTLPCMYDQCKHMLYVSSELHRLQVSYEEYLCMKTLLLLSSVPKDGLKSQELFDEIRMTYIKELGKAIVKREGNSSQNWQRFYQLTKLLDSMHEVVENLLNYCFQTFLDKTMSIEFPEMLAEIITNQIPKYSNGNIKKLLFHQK

GR [2] = target: T2, GR; assay: MDA-kb2 GR reporter assay, antagonist setup (500 nM HC); assay type: cell-based; parameters: constitutively expressed high levels of functional GR and AR; host or cells: MDA-kb2
Androgen receptor = conditions: cited from earlier work
Estrogen receptor-α = conditions: cited from earlier work
AroB transcription = conditions: 0.25 μM triclocarban added to 1 nM E2; zebrafish embryos; ref Chung et al. 2011; cited from earlier work
[3] = ref Schebb et al. 2012, cited from earlier work
[4] = BG1-ERE cells, ref Ahn et al. 2008

Q: Which “higher AR RTA than vehicle control” value (human (h)AR; 1 μM, vs 0.1% DMSO) does the source give for `O=C(Nc1ccc(Cl)cc1)Nc1ccc(Cl)c(Cl)c1` [Triclocarban, 1-(4-Chlorophenyl)-3-(3,4-dichlorophenyl) urea] here?
A: 40.4%

Q: And the “higher AR RTA over vehicle control” value (human (h)AR; 2.5 μM, vs 0.1% DMSO)?
A: 30.3%

Q: What about the “AR agonist activity, call” value (human (h)AR; AR-EcoScreen) of the same compound?
A: Agonist

Q: What about the “concentration with AR agonist activity” value (human (h)AR; AR-EcoScreen) of the same compound?
A: 1 to 2.5 µM

Q: What about the “effect on GR with HC” value (Glucocorticoid receptor; MDA-kb2 cells) of the same compound?
A: Enhancer of HC activity in MDA-kb2 cells ([Kolšek et al. 2014a])

Q: And the “concentration with enhanced HC activity on GR” value (Glucocorticoid receptor)?
A: 2 µM

Q: What about the highest noncytotoxic concentration (hERα-HeLa-9903 cells; hERα-HeLa-9903) of the same compound?
A: 5 µM

Q: And the “highest tested concentration as limited by precipitation and cytotoxicity” value (hERα-HeLa-9903 cells; hERα-HeLa-9903, ERα agonist dose-response)?
A: 5 µM

Q: And the GR agonist activity (GR [1])?
A: no GR agonist activity

Q: And the “lower GR RTA than spike-in control” value (GR [2]; 5 μM, vs 0.1% DMSO with 500 nM HC)?
A: 38.9%

Q: What about the “GR antagonist activity, call” value (GR [2]; MDA-kb2) of the same compound?
A: Antagonist

Q: What about the “concentration with GR antagonist activity” value (GR [2]; MDA-kb2) of the same compound?
A: 5 µM

Q: What about the “effect on AR” value (Androgen receptor; HEK-2933Y cells, ref Ahn et al. 2008, Chen et al. 2008) of the same compound?
A: Enhancer of testosterone activity in HEK-2933Y cells ([Ahn et al. 2008]; [Chen et al. 2008])

Q: And the “effect on AR” value (Androgen receptor; MDA-kb2 cells, ref Christen et al. 2010, Kolšek et al. 2014a, Tarnow et al. 2013)?
A: Enhancer of 5α-dihydrotestosterone activity in MDA-kb2 cells ([Christen et al. 2010]; [Kolšek et al. 2014a]; [Tarnow et al. 2013])

Q: What about the “effect on AR” value (Androgen receptor; T47D-ARE cells, ref Ahn et al. 2008) of the same compound?
A: Enhancer of testosterone activity in T47D-ARE cells ([Ahn et al. 2008])

Q: And the “effect on ER with β-estradiol” value (Estrogen receptor-α; [4])?
A: Enhancer of β-estradiol activity in BG1-ERE cells ([Ahn et al. 2008])

Q: What about the “effect on ER, compound alone” value (Estrogen receptor-α; [4]) of the same compound?
A: Agonist in BG1-ERE cells ([Ahn et al. 2008])

Q: And the “effect on ERα” value (Estrogen receptor-α; hERα-HeLa-9903 cells, ref Tarnow et al. 2013)?
A: Enhancer of β-estradiol activity in hERα-HeLa-9903 cells ([Tarnow et al. 2013])

Q: What about the “increase in AroB transcription” value (AroB transcription) of the same compound?
A: 18 fold

Q: And the “time of plasma peak after exposure” value [3]?
A: ≤ 48 h

Q: And the peak plasma concentration ([3]; six healthy volunteers, triclocarban-containing soaps)?
A: 23 to 530 nM
